Experimental data as given in patent US20190208782A1, “PROCESSING COMPOSITION FOR C[…] WEEDS” (Arch Chemicals, Inc., priority 2018, published 2019).
In brackets after ≈: the same amount, converted by molar mass.

Experiments:
Format in all cases: in vivo
Eurasian watermilfoil [1] = experiment: Fluroxypyr potassium salt formulations vs ester on Eurasian watermilfoil under mesocosm conditions (Example 4); conditions: 200 ug/L, 24 h exposure, 4 WAT
Method: Eurasian watermilfoil was obtained from cultures. Two apical tips approximately 15 cm long were planted into each of 204, plastic containers (940 mL). The containers were filled with potting soil and amended with 2 g/L/soil Osmocote® fertilizer 19-6-12. Four containers of potted Eurasian watermilfoil were placed into each of 51 mesocosm tanks. Tanks were filled to a volume of 257 L and plants allowed to grow approximately 2-3 weeks prior to herbicide treatments, or until plants were at or near the water surface. Pre-treatment biomass was harvested from three tanks set up with pots for this purpose. Biomass was harvested by collecting aboveground biomass of plants from all of the pots in each of the pretreatment tanks. Plant material was placed into individually labeled paper bags, dried in a force air oven at 50 C for at least 48 h, and then weighed to assess biomass,
After pre-treatment data collection, liquid herbicides were applied as a concentrated aqueous formulation using the rates and products outlined in Table 6. […]
Four weeks after treatment (WAT), living plants were, harvested, sorted to aboveground biomass (if any), dried in a forced air oven at 50 C for at least 48 h, and weighed for biomass determination. Differences between treatments were analyzed using ANOVA with treatment means separated using a Fisher's Protected LSD test at a p≤0.05 significance level.

Eurasian watermilfoil [2] = experiment: Efficacy of fluroxypyr herbicide on Eurasian watermilfoil under mesocosm conditions (Example 1); conditions: 24 h exposure
Source text: Materials and Methods: Eurasian watermilfoil was obtained from cultures. Two apical tips approximately 15 cm long were planted into each of 108, plastic containers. The containers were filled with Black Kow potting soil and amended with 2 g/L Osmocote fertilizer 19-6-12. Four containers of potted Eurasian watermilfoil were placed into each of 27 mesocosm tanks. Mesocosm tanks were filled to a volume of 276 L (48 cm depth) and plants allowed to grow approximately 2-3 weeks prior to herbicide treatments or until plants were at or near the water surface. Pre-treatment biomass was harvested from an extra mesocosm tank set up with potted Eurasian watermilfoil for this purpose. Biomass was harvested by collecting aboveground biomass of plants in the tank. Plant material were dried at 70 C for at least 48 h and weighed to assess biomass.
After pre-treatment data collection, concentrated liquid herbicides were applied as the formulations and rates outlined in Table 1. An untreated reference was also included for comparison purposes. All herbicide applications were made using a 24 h exposure and replicated 3 times. After the exposure time was reached, each mesocosm tank was drained and refilled with fresh water to remove any herbicide residue remaining in the water column.
Each week, tanks were rated for percent control on a 0-100% scale (0%=no control; 100%=complete plant mortality). Four weeks after treatment (WAT), living plants were harvested, sorted to aboveground biomass, dried, and weighed for biomass determination. Differences between treatments were analyzed using an ANOVA test with means separated using a Fisher's Protected LSD test. Fluroxypyr data were fitted to an exponential decay regression model in order to estimate the EC50 value for fluroxypyr use on Eurasian watermilfoil.

Eurasian watermilfoil [3] = experiment: Fluroxypyr potassium salt vs ester formulation on Eurasian watermilfoil in small scale aquaria (Example 3); conditions: 24 h exposure, 4 WAT
Method: Materials and Methods: Eurasian watermilfoil was obtained from cultures. Two apical tips approximately 10 cm long were planted into each of 96, plastic containers (473 mL). The containers were filled with potting soil and amended with 2 g/L/soil Osmocote® fertilizer 19-6-12. A layer of sand was placed on top of the sediment in each container to prevent sediment re-suspension in the aquaria. Four containers of potted Eurasian watermilfoil were placed into each of 24 aquaria. Each aquaria was filled to a volume of 45 L and plants allowed to grow approximately 2-3 weeks prior to herbicide treatments or until plants were at or near the water surface. Pre-treatment biomass was harvested from extra aquaria set up with pots for this purpose. Biomass was harvested by cutting aboveground biomass of plants at the soil surface in the three pretreatment aquaria. Harvested plant material was placed into individually labeled paper bags, dried in a force air oven at 50 C for at least 48 h, and then weighed to assess biomass. […]
Each week, aquaria were rated for percent control on a 0-100% scale (0%=no control; 100% complete plant mortality). […] Differences between treatments were analyzed using ANOVA and means separated using a Fisher's Protected LSD test at a p≤0.05 significance level.

Q: `CCCCCCC(C)OC(=O)COc1nc(F)c(Cl)c(N)c1Cl` (stereo not shown) [Fluroxypyr ester, [(4-amino-3,5-dichloro-6-fluoro-2-pyridinyl)oxy]acetic acid, 1-methylheptyl ester] was tested. Which “Eurasian watermilfoil biomass reduction” value (Eurasian watermilfoil [1]) did it give?
A: 98%

Q: What about the “Visual control ratings of Eurasian watermilfoil” value (shortened to “Visual control ratings”) (Eurasian watermilfoil [2]; 50 ug/L, 1 WAT) of the same compound?
A: 30%

Q: What about the “Visual control ratings” value (Eurasian watermilfoil [2]; 50 ug/L, 2 WAT) of the same compound?
A: 60%

Q: And the “Visual control ratings” value (Eurasian watermilfoil [2]; 50 ug/L, 3 WAT)?
A: 50%

Q: What about the “Visual control ratings” value (Eurasian watermilfoil [2]; 50 ug/L, 4 WAT) of the same compound?
A: 45%

Q: And the “biomass reduction of Eurasian watermilfoil” value (Eurasian watermilfoil [2]; 50 ug/L, 4 WAT)?
A: 76%

Q: And the “Visual control ratings” value (Eurasian watermilfoil [2]; 100 ug/L, 1 WAT)?
A: 60%

Q: What about the “Visual control ratings” value (Eurasian watermilfoil [2]; 100 ug/L, 2 WAT) of the same compound?
A: 90%

Q: And the “Visual control ratings” value (Eurasian watermilfoil [2]; 100 ug/L, 3 WAT)?
A: 90%

Q: What about the “Visual control ratings” value (Eurasian watermilfoil [2]; 100 ug/L, 4 WAT) of the same compound?
A: 95%

Q: And the “biomass reduction of Eurasian watermilfoil” value (Eurasian watermilfoil [2]; 100 ug/L, 4 WAT)?
A: 99%

Q: What about the “Visual control ratings” value (Eurasian watermilfoil [2]; 200 ug/L, 1 WAT) of the same compound?
A: 60%

Q: And the “Visual control ratings” value (Eurasian watermilfoil [2]; 200 ug/L, 2 WAT)?
A: 100%

Q: And the “Visual control ratings” value (Eurasian watermilfoil [2]; 200 ug/L, 3 WAT)?
A: 100%

Q: What about the “Visual control ratings” value (Eurasian watermilfoil [2]; 200 ug/L, 4 WAT) of the same compound?
A: 100%

Q: And the “Visual control ratings” value (Eurasian watermilfoil [2]; 400 ug/L, 1 WAT)?
A: 70%

Q: And the “Visual control ratings” value (Eurasian watermilfoil [2]; 400 ug/L, 2 WAT)?
A: 100%

Q: What about the “Visual control ratings” value (Eurasian watermilfoil [2]; 400 ug/L, 3 WAT) of the same compound?
A: 100%

Q: And the “Visual control ratings” value (Eurasian watermilfoil [2]; 400 ug/L, 4 WAT)?
A: 100%

Q: And the “Visual control ratings” value (Eurasian watermilfoil [2]; 800 ug/L, 1 WAT)?
A: 70%

Q: And the “Visual control ratings” value (Eurasian watermilfoil [2]; 800 ug/L, 2 WAT)?
A: 100%

Q: And the “Visual control ratings” value (Eurasian watermilfoil [2]; 800 ug/L, 3 WAT)?
A: 100%

Q: And the “Visual control ratings” value (Eurasian watermilfoil [2]; 800 ug/L, 4 WAT)?
A: 100%

Q: And the “Visual control ratings” value (Eurasian watermilfoil [2]; 1600 ug/L, 1 WAT)?
A: 80%

Q: And the “Visual control ratings” value (Eurasian watermilfoil [2]; 1600 ug/L, 2 WAT)?
A: 100%

Q: And the “Visual control ratings” value (Eurasian watermilfoil [2]; 1600 ug/L, 3 WAT)?
A: 100%

Q: And the “Visual control ratings” value (Eurasian watermilfoil [2]; 1600 ug/L, 4 WAT)?
A: 100%

Q: And the “Visual control ratings” value (Eurasian watermilfoil [2]; 3200 ug/L, 1 WAT)?
A: 80%

Q: And the “Visual control ratings” value (Eurasian watermilfoil [2]; 3200 ug/L, 2 WAT)?
A: 100%

Q: And the “Visual control ratings” value (Eurasian watermilfoil [2]; 3200 ug/L, 3 WAT)?
A: 100%

Q: And the “Visual control ratings” value (Eurasian watermilfoil [2]; 3200 ug/L, 4 WAT)?
A: 100%

Q: What about the EC50 (Eurasian watermilfoil [2]; 4 WAT, mesocosm, read-out: EC50 for Eurasian watermilfoil (biomass, exponential decay regression model)) of the same compound?
A: 8.8 ng/mL (≈ 0.024 µM)

Q: What about the “Eurasian watermilfoil biomass reduction” value (Eurasian watermilfoil [3]; 200 ug/L) of the same compound?
A: 100%

Q: And the “Eurasian watermilfoil biomass reduction” value (Eurasian watermilfoil [3]; 400 ug/L)?
A: 100%
